Measurements from patent US20090131483A1, “2-PYRIDINE DERIVATIVES AS INHIBITORS OF NEUTROPHILE ELASTASE” (priority 2005, published 2009).

Target: T1, Human Neutrophil Elastase (HNE) (Homo sapiens, UniProt P08246)
T1 construct: Human Neutrophil Elastase (HNE) purified from serum; purchased Calbiochem 324681; host or cells: purified from serum (so in the source)
T1 sequence (P08246 30-267): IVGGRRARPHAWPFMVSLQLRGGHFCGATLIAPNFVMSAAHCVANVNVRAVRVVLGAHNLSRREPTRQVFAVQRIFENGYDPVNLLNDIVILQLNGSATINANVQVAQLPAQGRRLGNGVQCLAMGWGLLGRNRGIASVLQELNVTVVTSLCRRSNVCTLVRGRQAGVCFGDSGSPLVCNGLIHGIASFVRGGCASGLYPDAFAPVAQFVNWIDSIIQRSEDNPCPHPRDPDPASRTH
Test: Human Neutrophil Elastase Quenched-FRET Assay
Assay type: biochemical
Details: HNE purified from serum 1.7 nM, substrate MeOSuc-AAPV-AMC 100 μM, pH 7.5, 15 min pre-incubation, 30 min incubation at room temperature; read-out: Inhibition of Human Neutrophil Elastase IC50
Procedure: Human Neutrophil Elastase Quenched-FRET Assay
The assay uses Human Neutrophil Elastase (HNE) purified from serum (Calbiochem art. 324681; Ref. Baugh, R. J. et al., 1976, Biochemistry. 15, 836-841). H was stored in 50 mM sodium acetate (NaOAc), 200 mM sodium chloride (NaCl), pH 5.5 with added 30% glycerol at −20° C. The protease substrate used was Elastase Substrate V Fluorogenic, MeOSuc-AAPV-AMC (Calbiochem art. 324740; Ref. Castillo, M. J. et al., 1979, Anal. Biochem. 99, 53-64). The substrate was stored in dimethyl sulphoxide (DMSO) at −20° C. The assay additions were as follows: Test compounds and controls were added to black 96-well flat-bottom plates (Greiner 655076), 1 μL in 100% DMSO, followed by 30 μL HNE in assay buffer with 0.01% Triton (trade mark) X-100 detergent. The assay buffer constitution was: 100 mM Tris(hydroxymethyl)aminomethane (TRIS) (pH 7.5) and 500 mM NaCl. The enzyme and the compounds were incubated at room temperature for 15 minutes. Then 30 μl substrate in assay buffer was added. The assay was incubated for 30 minutes at room temperature. The concentrations of HNE enzyme and substrate during the incubation were 1.7 nM and 100 μM, respectively. The assay was then stopped by adding 60 μl stop solution (140 mM acetic acid, 200 mM sodium monochloroacetate, 60 mM sodium acetate, pH 4.3). Fluorescence was measured on a Wallac 1420 Victor 2 instrument at settings: Excitation 380 nm, Emission 460 nm. IC50 values were determined using Xlfit curve fitting using model 205.

Row | IC50 [nM] | SMILES
1 | 31 | Cc1c(-c2ccnn2C)cc(C(=O)NCc2cc(CO)no2)c(=O)n1-c1cccc(C(F)(F)F)c1 [Example 4, N-{[3-(Hydroxymethyl)isoxazol-5-yl]methyl}-6-methyl-5-(1-methyl-1H-pyrazol-5-yl)-2-oxo-1-[3-(trifluoromethyl)phenyl]1,2-dihydropyridine-3-carboxamide]
2 | 48 | Cc1c(C2CC2)cc(C(=O)NCc2cc(CO)no2)c(=O)n1-c1cccc(C(F)(F)F)c1 [Example 7, 5-Cyclopropyl-N-{[3-(hydroxymethyl)isoxazol-5-yl]methyl}-6-methyl-2-oxo-1-[3-(trifluoromethyl)phenyl]-1,2-dihydropyridine-3-carboxamide]

More lines, now with the values behind:

Row | SMILES | IC50 [nM]
3 | CCc1cc(C(=O)NCc2cc(CO)no2)c(=O)n(-c2cccc(C(F)(F)F)c2)c1C [Example 6, 5-Ethyl-N-{[3-(hydroxymethyl)isoxazol-5-yl]methyl}-6-methyl-2-oxo-1-[3-(trifluoromethyl)phenyl]-1,2-dihydropyridine-3-carboxamide] | 45
4 | Cc1c(C#CCO)cc(C(=O)NCc2ccc(S(C)(=O)=O)cc2)c(=O)n1-c1cccc(C(F)(F)F)c1 [Example 20, 5-(3-Hydroxyprop-1-yn-1-yl)-6-methyl-N-[4-(methylsulfonyl)benzyl]-2-oxo-1-[3-(trifluoromethyl)phenyl]-1,2-dihydropyridine-3-carboxamide] | 23
5 | Cc1c(CS(C)(=O)=O)cc(C(=O)NCc2ccc(S(=O)(=O)C3CC3)cc2)c(=O)n1-c1cccc(C(F)(F)F)c1 [Example 23, N-[4-(Cyclopropylsulfonyl)benzyl]-6-methyl-5-[(methylsulfonyl)methyl]-2-oxo-1-[3-(trifluoromethyl)phenyl]-1,2-dihydropyridine-3-carboxamide] | 61
